Source: PubChem BioAssay (NCI)
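Following 48 hours of exposure in 96-well plates, responses at five concentrations were used to interpolate endpoints linearly. The concentration for 50% growth inhibition is given as GI50. TGI is the concentration that stops growth completely.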

Key:
Experiment in all cases: growth of human tumour cells (NCI), 48 h
SF-295 CNS = test system: SF-295 CNS
LOX IMVI melanoma = test system: LOX IMVI melanoma
TK-10 renal = test system: TK-10 renal
CCRF-CEM leukemia = test system: CCRF-CEM leukemia
EKVX NSCLC = test system: EKVX NSCLC
MDA-MB-231 breast = test system: MDA-MB-231 breast
NCI-H522 lung = test system: NCI-H522 lung
SK-MEL-2 melanoma = test system: SK-MEL-2 melanoma
OVCAR-8 ovarian = test system: OVCAR-8 ovarian
OVCAR-3 ovarian = test system: OVCAR-3 ovarian

| Compound | GI50 (SF-295 CNS) | TGI (SF-295 CNS) | GI50 (LOX IMVI melanoma) | TGI (LOX IMVI melanoma) | GI50 (TK-10 renal) | TGI (TK-10 renal) | GI50 (CCRF-CEM leukemia) | TGI (CCRF-CEM leukemia) | GI50 (EKVX NSCLC) | TGI (EKVX NSCLC) | GI50 (MDA-MB-231 breast) | TGI (MDA-MB-231 breast) | GI50 (NCI-H522 lung) | TGI (NCI-H522 lung) | GI50 (SK-MEL-2 melanoma) | TGI (SK-MEL-2 melanoma) | GI50 (OVCAR-8 ovarian) | TGI (OVCAR-8 ovarian) | GI50 (OVCAR-3 ovarian) | TGI (OVCAR-3 ovarian) |
| --- | --- | --- | --- | --- | --- | --- | --- | --- | --- | --- | --- | --- | --- | --- | --- | --- | --- | --- | --- | --- |
| C[C@@]1(F)[C@H](O)[C@@H](CO)O[C@H]1n1ccc(=O)[nH]c1=O | > 100 µM | > 100 µM | > 100 µM | > 100 µM | > 100 µM | > 100 µM | > 100 µM | > 100 µM | > 100 µM | > 100 µM | > 100 µM | > 100 µM | > 100 µM | > 100 µM | > 100 µM | > 100 µM | > 100 µM | > 100 µM | > 100 µM | > 100 µM |
| CCCCCCCC(=O)OCC/C=C/C1OC1C1OC(=O)/C=C\C=C\C(=O)N(C(C)=O)C(=O)/C=C(/C)CCC2OC2C1OC(=O)NC(C)=O (stereo not given) | 2.16 µM | 9.9 µM | 2.93 µM | 6.74 µM | 6.91 µM | 22.2 µM | 0.734 µM | > 25 µM | > 25 µM | > 25 µM | 10.5 µM | > 25 µM | 3.78 µM | 8.16 µM | 6.46 µM | 20.4 µM | 3.64 µM | 16.6 µM | 4.07 µM | 8.4 µM |
| COC1=CC(=O)O/C1=C(\OC)C1OC1c1ccccc1 (stereo not given) |  | > 100 µM |  | > 100 µM |  | > 100 µM |  | > 100 µM |  | > 100 µM |  | > 100 µM |  | > 100 µM |  | > 100 µM |  | > 100 µM |  | > 100 µM |
| NCCO/C=C/C(N)C(=O)O (stereo not given) |  | > 100 µM |  | > 100 µM |  | > 100 µM |  | > 100 µM |  | > 100 µM |  | > 100 µM |  | > 100 µM |  | > 100 µM |  | > 100 µM |  | > 100 µM |
| CC1(C)CC(C)(C)c2cc(NC(=S)Nc3ccc([N+](=O)[O-])cc3)ccc2S1 | 10.8 µM | 27.2 µM | 12.4 µM | 31.9 µM | 10.3 µM | 24.8 µM | 12.3 µM | 41.1 µM | 12.7 µM | 29.7 µM | 10.8 µM | 22.6 µM | 9.63 µM | 22.1 µM | 10.5 µM | 23.1 µM | 16.6 µM | 60.4 µM | 9.75 µM | 31.2 µM |
| COc1ccc(-c2ccc(OC)c(OC)c2OC)cc1 | 1.7 µM | > 100 µM | 2.82 µM | > 100 µM | 5.1 µM | > 100 µM | 2.19 µM | > 100 µM | 4.1 µM | > 100 µM | 3.21 µM | > 74.5 µM | 1.56 µM | > 27.9 µM | 3.8 µM | > 100 µM | 6.9 µM | > 100 µM | 1.41 µM | 4.49 µM |
